Legend:
[1] = tested on: HCT15 xenograft model of colorectal cancer; experiment: HCT15 xenograft model; format: in vivo, mouse; details: Apomab 7.3 10 mg/kg, CPT-11 80 mg/kg, alone or combined; FIG. 26
[2] = tested on: SKMES-1 human NSCLC xenograft; experiment: SKMES-1 human NSCLC xenograft, tumor growth delay (Example 9); details: for median TTE: 1500 mm^3 endpoint volume, 45-day study, control median TTE 18.9 days; for TGD, % of control / TGD: versus vehicle control; for TGD, % of control: maximum achievable 138%; for TGD: maximum achievable 26.1 days
Description: Xenografts were initiated from SKMES-1 lung tumors maintained by serial transplantation at PRC. Each test mouse received a 1 mm^3 SKMES-1 tumor fragment implanted subcutaneously in the right flank, and tumor growth was monitored. Thirteen days later, designated as Day 1 of the study, individual tumor volumes ranged from 63 to 144 mm^3, and the animals were sorted into four groups each consisting of ten mice and two groups each consisting of nine mice. Mean tumor volumes were 93 to 95 mm^3.
All test materials were provided ready to dose at 0.1 mL per 20 g body weight (5 mL/kg), and were stored at −80° C. upon receipt. The test materials were thawed on the first day of dosing, kept on ice during dosing, then subsequently stored at 4° C. Carboplatin ([…] ® injection, Bristol Myers Squibb) was diluted with 5% dextrose in water (D5W) to yield the desired dose in a volume of 0.2 mL per 10 g body weight (10 mL/kg). Paclitaxel (Natural Pharmaceuticals, Inc.) was diluted with D5W on each day of dosing from a 10× stock solution to yield a vehicle consisting of 5% ethanol and 5% Cremophor EL in 90% D5W (5% EC vehicle), so that the desired dose was delivered in 0.1 mL per 20 g body weight.
Group 1 (vehicle control) mice received vehicle administered intraperitoneally once daily for five days (i.p. qd×5), and served as tumor growth controls. […] Each dose was administered in the volume indicated in the previous section, and was scaled to the body weight of the animal.

[3] = tested on: Colo 205 human colon carcinoma xenografts; experiment: Colo 205 human colon carcinoma xenografts in nude mice, tumor growth delay (Example 8); format: in vivo, mouse; details: endpoint tumor volume 1000 mm^3; for tumor growth delay (TGD): Apo2L.0 60 mg/kg i.p. 5/2/5, Apomab 7.3 3 mg/kg i.v. Days 1, 8, B20-4.1 10 mg/kg i.p. Days 1 and 8; for tumor growth delay (TGD), percentage of control median TTE: same regimens
Description: Xenografts were initiated from cultured Colo 205 human colon carcinoma cells. […] On the day of tumor cell implant, Colo 205 cells were harvested and resuspended in 50% Matrigel matrix (BD Biosciences) in PBS at a concentration of 5×10^6 cells/mL.
The test materials were kept on ice during dosing, and dosing solutions were subsequently stored at 4° C.
Tumors were measured twice weekly using calipers. […] The time to endpoint (TTE) for each mouse was calculated from the following equation: […]
Where b is the intercept and m is the slope of the line obtained by linear regression of a log-transformed tumor growth data set. The data set was comprised of the first observation that exceeded the study endpoint volume and the three consecutive observations that immediately preceded the attainment of the endpoint volume. […] Animals suffering treatment-related death or non-treatment related death due to metastasis were assigned a TTE value equal to the day of death. Animals suffering non-treatment related death or death of unknown causes were excluded from the TTE calculations.
Treatment outcome was evaluated by tumor growth delay (TGD), which is defined as the increase in the median time to endpoint (TTE) in the treatment group compared to the control group: TGD=T−C,
Treatment may cause partial regression (PR) or complete regression (CR) of tumor in an animal In a PR response, the tumor volume is 50% or less of its Day 1 volume for three consecutive measurements during the course of the study, and equal to or greater than 13.5 mm^3 for one or more of these three measurements. In a CR response, the tumor volume is less than 13 5 mm^3 for one or more of these three measurements during the course of the study. An animal with a CR response at the termination of the study is additionally classified as a tumor-free survivor (TFS). Regression responses were monitored and recorded.
The Logrank test was use to analyze the significance of the differences between the TTE values of treated and control groups. Two-tailed statistical analyses were conducted at significance level P=0.05, with results deemed significant at 0.01 P 0.05, and highly significant at P<0.01.
Median tumor growth curves show group median tumor volumes as a function of time.

[4] = tested on: human Colo 205 colon carcinoma xenograft; experiment: Human Colo 205 carcinoma xenograft model, tumor growth delay (Example 10); details: for TGD: maximum possible 193%, all treatments i.p.; for MTV(n), median tumor volume on Day 61: n = mice remaining on Day 61
Description: The animals were fed ad libitum water and NIH 31 Modified and Irradiated Lab Diet® consisting of 18.0% crude protein, 5.0% crude fat, and 5.0% crude fiber. The mice were housed on irradiated ALPHA-Dri® Bed-O'Cobs® Laboratory Animal Bedding in static microisolators on a 12-hour light cycle at 21-22° C. and 40-60% humidity.
Human Colo 205 colon carcinoma cells were cultured in RPMI 1640 medium containing 100 units/mL penicillin G sodium, 100 μg/mL streptomycin sulfate, 0.25 μg/mL amphotericin B, and 25 μg/mL gentamicin. The medium was supplemented with 10% heat-inactivated fetal bovine serum, 2 mM glutamine, and 1 mM sodium bicarbonate. The tumor cells were cultured in tissue culture flasks in a humidified incubator at 37° C., in an atmosphere of 5% CO2 and 95% air.
The human Colo 205 carcinoma cells used for implantation were harvested during log phase growth and resuspended in 50% matrigel at 5×10^6 cells/mL. Each mouse was injected s.c. in the right flank with 1×10^6 cells (0.2 mL cell suspension). Tumors were monitored twice weekly and then daily as their volumes approached 100-300 mm^3 On Day 1 of the study, animals were sorted into treatment groups with tumor sizes of 108.0-220.5 mm^3 and a group mean tumor size of 149.8 mm^3 Tumor weight may be estimated with the assumption that 1 mg is equivalent to 1 mm^3 of tumor volume.
The test materials were provided ready for dosing. The dosing solutions were stored at 4° C.
Mice were sorted into six groups with ten mice per group. All treatments were administered intraperitoneally (i.p.).
Apo2L.0 and its vehicle were each administered once daily on Days 1-5 (qd×5). […] Control Group 1 mice were treated with the vehicle for Apo2L.0. […] In all groups, the dosing volume of 0.2 ml/20 g mouse was scaled to the body weight of each animal.

Colo 205 xenograft = Colo 205 xenograft model, Apomabs 23.3, 25.3 and 7.3 (Example 7); format: in vivo, mouse; details: single 3 or 10 mg/kg i.v. dose; 25-day data; FIG. 33
Description: All mice were ear tagged for identification. […] Group 4 was administered a single 3 mg/kg/mouse i.v. dose of Apomab 23.3. Group 5 was administered a single […] i.v. dose of Apomab 23.3. […] 24 hours post treatment all mice were weighed. Tumors were measured 2×/week for the first 2 weeks and then weekly for the next 4 weeks. After 6 weeks or when the tumors reached a size of >1000 mm^3, the mice were sacrificed.

[5] = tested on: Colo 205 human colon carcinoma xenograft; experiment: Colo 205 xenograft athymic nude mouse model (Example 2); format: in vivo
Description: All mice were ear-tagged for identification. Once the tumor volume was approximately 100-200 mm^3, the Colo 205 tumor-bearing mice were randomly grouped and treatment was administered.
In some instances, 3 or 4 mice were euthanized from the vehicle and 10 mg/kg groups, and serum and tumors were collected at 5 minutes, 24 hours or 48 hours post treatment for serum drug concentration and tumor histology studies. In the remaining mice, tumor measurements were taken twice a week for the first 2 weeks, then once a week for another 4 weeks.

BxPC3 xenograft = BxPC3 xenograft model of human pancreatic adenocarcinoma; format: in vivo, mouse; details: Apomab 7.3 10 mg/kg i.v., gemcitabine 160 mg/kg ip; FIG. 29
H2122 xenograft = H2122 xenograft model of human lung cancer; format: in vivo, mouse
Description: All mice were ear tagged for identification.
All mice were ear tagged for identification. […] Any mice excluded from the treatment groups were euthanized.
Group A was a vehicle-treated control group (0.5 M arginine succinate, 20 mM Tris, 0.02% Tween 20, pH 7.2). […] 48 hours following the first treatment, three mice from each of Groups B, C and D were euthanized, and their tumors were collected as follows. One tumor was preserved in 10% formalin for histology study. One tumor was frozen in liquid nitrogen for RNA studies. One tumor was frozen in liquid nitrogen for Western blot. Tumor measurements were taken 2×/week for the first 2 weeks then 1×/week for the next 4 weeks.

[6] = tested on: Colo205 human colon carcinoma cell line; experiment: Bioassay: tumor cell growth inhibition/killing (AlamarBlue); format: cell-based; details: Apomab framework variants; last column of Table 12
Description: Bioassay: tumor cell growth inhibition/killing. The apparent potency of each antibody variant was determined in an in vitro tumor cell-killing assay. Colo205 human colon carcinoma cell line was cultured in RPMI medium containing 10% fetal bovine serum. […] Cells (20,000/well) were then added to the plates. The plates were incubated at 37° C. for a total of 48 h. AlamarBlue was added to the wells for the last 3 h of incubation. Fluorescence was read using a fluorometer with excitation at 530 nm and emission of 590 nm. The data were analyzed using a four parameter curve-fitting program.

Molecule	anticancer activity [1]	median TTE [2] [days]	TGD, % of control [2] [%]	TGD [2] [days]	tumor growth delay (TGD) [3] [days]	tumor growth delay (TGD), percentage of control median TTE [3] [%]	TGD [4] [%]	MTV(n), median tumor volume on Day 61 [4]	LTTFS (long-term tumor-free survivor) ([4]; ten mice per group)	anticancer activity (Colo 205 xenograft)	Bioassay activity with crosslinking [6]	also measured
CCc1c2c(nc3ccc(OC(=O)N4CCC(N5CCCCC5)CC4)cc13)-c1cc3c(c(=O)n1C2)COC(=O)[C@]3(O)CC [CPT-11, irinotecan, reference compound]	effective when administered alone											
Apo2L.0: soluble form of Apo-2 ligand (TRAIL), 114-281 extracellular domain sequence		22.9	21	4.0	28.4	190	158	1,210 mm^3	One			median TTE ([4]; 1500 mm^3 endpoint volume, 61-day study, control median TTE 20.8 days): 53.6 days; T-C ([4]; versus vehicle control): 32.8 days
Apomab 7.3: anti-DR5 IgG: heavy chain TH7 (G33A, N53Q, L102Y) + light chain TL3 (Q24S, K51A, R91A); SEQ ID NOS: 18 and 20	effective when administered alone	2.0	38	7.1	53.0	355	193	776 mm^3	One	significant anticancer activity		regression responses ([2]; mouse, in vivo): No regression responses were documented; reversal of efficacy during test period ([5]; 1 mg/kg and 3 mg/kg doses, 20-day test period, FIG. 23): does not show any reversal during the 20-day test period; reduction of tumor volume ([5]; 1 mg/kg and 3 mg/kg doses, FIG. 23): effective in reducing tumor volume; anticancer activity compared with Apomabs 23.3 and 25.3 ([5]; FIG. 24): far exceeded the activity of Apomabs 23.3 and 25.3; reduction of (mean) tumor volume ([5]; single intraperitoneal dose 3 or 10 mg/kg, FIGS. 21 and 22, efficacy essentially the same as 16E2 version 1): highly efficient in reducing tumor volume; 61-day survivors ([4]; ten mice per group): six; PR responses ([4]; ten mice per group): three; transient CR response ([4]; ten mice per group): one; anticancer activity (BxPC3 xenograft): far superior to the efficacy of gemcitabine; dose-response efficacy (H2122 xenograft; 1, 3 and 10 mg/kg single IV dose, FIG. 32): efficacious in all doses tested; mice with complete response (CR) (H2122 xenograft; 6 mice/group, without any reversal during the 70-day treatment period): All six
Apomab 18.3: Apomab version with heavy chain framework residues E LVQ K											None	
Apomab 25.3: Apomab version with heavy chain framework residues Q LVQ K										significant anticancer activity		
Apomab 27.3: Apomab version with heavy chain framework residues E VER K											none	

— patent publication US8409570B2, “Method of inducing apoptosis using anti-DR5 antibodies” (Genentech, Inc., priority 2005, dated 2013)
